According to PubChem BioAssay (NCI):
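Briefly, cells in 96-well plates were exposed to five compound concentrations for 48 h, and endpoints were estimated by linear interpolation. Here, GI50 denotes the concentration required for 50% inhibition of growth. TGI: concentration producing complete growth inhibition.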

Key:
Assay in all cases: NCI-60 cell line screen, 48 h
NCI-H23 lung = system: NCI-H23 lung
OVCAR-4 ovarian = system: OVCAR-4 ovarian
TK-10 renal = system: TK-10 renal
OVCAR-5 ovarian = system: OVCAR-5 ovarian
SN12C renal = system: SN12C renal
HCT-116 colon = system: HCT-116 colon
UO-31 renal = system: UO-31 renal
SNB-75 CNS = system: SNB-75 CNS
MALME-3M melanoma = system: MALME-3M melanoma
MDA-MB-231 breast = system: MDA-MB-231 breast
MCF7 breast = system: MCF7 breast
SK-MEL-5 melanoma = system: SK-MEL-5 melanoma
RPMI-8226 leukemia = system: RPMI-8226 leukemia
IGROV1 ovarian = system: IGROV1 ovarian
SF-539 CNS = system: SF-539 CNS
786-0 renal = system: 786-0 renal
HCT-15 colon = system: HCT-15 colon
CAKI-1 renal = system: CAKI-1 renal
CCRF-CEM leukemia = system: CCRF-CEM leukemia
KM12 colon = system: KM12 colon
EKVX NSCLC = system: EKVX NSCLC
A498 renal = system: A498 renal
HS 578T breast = system: HS 578T breast
COLO 205 colon = system: COLO 205 colon
HOP-62 NSCLC = system: HOP-62 NSCLC
SF-295 CNS = system: SF-295 CNS
K-562 leukemia = system: K-562 leukemia
T-47D breast = system: T-47D breast
HT29 colon = system: HT29 colon
SK-OV-3 ovarian = system: SK-OV-3 ovarian
MDA-MB-435 = system: MDA-MB-435
SF-268 CNS = system: SF-268 CNS
NCI/ADR-RES ovarian = system: NCI/ADR-RES ovarian
SW-620 colon = system: SW-620 colon
NCI-H522 lung = system: NCI-H522 lung
A549 NSCLC = system: A549 NSCLC
LOX IMVI melanoma = system: LOX IMVI melanoma
SNB-19 CNS = system: SNB-19 CNS
HOP-92 NSCLC = system: HOP-92 NSCLC
ACHN renal = system: ACHN renal
PC-3 prostate = system: PC-3 prostate
SK-MEL-2 melanoma = system: SK-MEL-2 melanoma
DU-145 prostate = system: DU-145 prostate
NCI-H226 lung = system: NCI-H226 lung
OVCAR-3 ovarian = system: OVCAR-3 ovarian
U251 CNS = system: U251 CNS
SR leukemia = system: SR leukemia
HL-60(TB) leukemia = system: HL-60(TB) leukemia
NCI-H460 lung = system: NCI-H460 lung
M14 melanoma = system: M14 melanoma
HCC-2998 colon = system: HCC-2998 colon
UACC-62 melanoma = system: UACC-62 melanoma
OVCAR-8 ovarian = system: OVCAR-8 ovarian
RXF 393 renal = system: RXF 393 renal
MOLT-4 leukemia = system: MOLT-4 leukemia
BT-549 breast = system: BT-549 breast
UACC-257 melanoma = system: UACC-257 melanoma
SK-MEL-28 melanoma = system: SK-MEL-28 melanoma

## CCn1cc(C(=O)N/N=C/c2cccc(F)c2)c(=O)c2cc(F)c(N3CCNC(C)C3)c(F)c21 (configuration not stated)
NCI-H23 lung
  GI50: 1.83 µM
  TGI: 3.45 µM
OVCAR-4 ovarian
  GI50: 2.02 µM
  TGI: 4.22 µM
TK-10 renal
  GI50: 1.73 µM
  TGI: 3.18 µM
OVCAR-5 ovarian
  GI50: 1.7 µM
  TGI: 3.1 µM
SN12C renal
  GI50: 1.62 µM
  TGI: 3.11 µM
HCT-116 colon
  GI50: 1.75 µM
  TGI: 3.47 µM
UO-31 renal
  GI50: 1.46 µM
  TGI: 2.79 µM
SNB-75 CNS
  GI50: 1.52 µM
  TGI: 2.87 µM
MALME-3M melanoma
  GI50: 1.72 µM
  TGI: 3.23 µM
MDA-MB-231 breast
  GI50: 1.68 µM
  TGI: 3.14 µM
MCF7 breast
  GI50: 1.64 µM
  TGI: 3.18 µM
SK-MEL-5 melanoma
  GI50: 1.75 µM
  TGI: 3.19 µM
RPMI-8226 leukemia
  GI50: 1.79 µM
  TGI: 3.77 µM
IGROV1 ovarian
  GI50: 1.58 µM
  TGI: 3.16 µM
SF-539 CNS
  GI50: 1.59 µM
  TGI: 2.96 µM
786-0 renal
  GI50: 1.63 µM
  TGI: 3.16 µM
HCT-15 colon
  GI50: 1.46 µM
  TGI: 2.84 µM
CAKI-1 renal
  GI50: 1.73 µM
  TGI: 3.15 µM
CCRF-CEM leukemia
  GI50: 1.55 µM
  TGI: 3.39 µM
KM12 colon
  GI50: 1.83 µM
  TGI: 3.39 µM
EKVX NSCLC
  GI50: 1.6 µM
  TGI: 3.06 µM
A498 renal
  GI50: 1.28 µM
  TGI: 6.36 µM
HS 578T breast
  GI50: 4.4 µM
  TGI: 25.5 µM
COLO 205 colon
  GI50: 1.71 µM
  TGI: 3.25 µM
HOP-62 NSCLC
  GI50: 1.66 µM
  TGI: 3.09 µM
SF-295 CNS
  GI50: 1.8 µM
  TGI: 3.29 µM
K-562 leukemia
  GI50: 1.04 µM
  TGI: 2.4 µM
T-47D breast
  GI50: 1.61 µM
  TGI: 3.25 µM
HT29 colon
  GI50: 1.55 µM
  TGI: 2.98 µM
SK-OV-3 ovarian
  GI50: 1.78 µM
  TGI: 3.28 µM
MDA-MB-435
  GI50: 1.71 µM
  TGI: 3.12 µM
SF-268 CNS
  GI50: 1.8 µM
  TGI: 3.52 µM
NCI/ADR-RES ovarian
  GI50: 1.81 µM
  TGI: 3.41 µM
SW-620 colon
  GI50: 1.68 µM
  TGI: 3.17 µM
NCI-H522 lung
  GI50: 1.76 µM
  TGI: 3.32 µM
A549 NSCLC
  GI50: 1.74 µM
  TGI: 3.29 µM
LOX IMVI melanoma
  GI50: 1.71 µM
  TGI: 3.21 µM
SNB-19 CNS
  GI50: 1.7 µM
  TGI: 3.15 µM
HOP-92 NSCLC
  GI50: 1.12 µM
  TGI: 2.42 µM
ACHN renal
  GI50: 1.63 µM
  TGI: 2.99 µM
PC-3 prostate
  GI50: 1.62 µM
  TGI: 3.09 µM
SK-MEL-2 melanoma
  GI50: 1.97 µM
  TGI: 3.86 µM
DU-145 prostate
  GI50: 1.67 µM
  TGI: 3.05 µM
NCI-H226 lung
  GI50: 1.97 µM
  TGI: 4.13 µM
OVCAR-3 ovarian
  GI50: 1.82 µM
  TGI: 3.4 µM
U251 CNS
  GI50: 1.61 µM
  TGI: 3.03 µM
SR leukemia
  GI50: 1.33 µM
  TGI: 3.14 µM
HL-60(TB) leukemia
  GI50: 1.88 µM
  TGI: 3.66 µM
NCI-H460 lung
  GI50: 1.68 µM
  TGI: 3.14 µM
M14 melanoma
  GI50: 1.82 µM
  TGI: 3.37 µM
HCC-2998 colon
  GI50: 1.86 µM
  TGI: 3.53 µM
UACC-62 melanoma
  GI50: 1.77 µM
  TGI: 3.2 µM
OVCAR-8 ovarian
  GI50: 1.76 µM
  TGI: 3.32 µM
RXF 393 renal
  GI50: 1.69 µM
  TGI: 3.22 µM
MOLT-4 leukemia
  GI50: 1.75 µM
  TGI: 3.4 µM
BT-549 breast
  GI50: 1.62 µM
  TGI: 3.05 µM
UACC-257 melanoma
  GI50: 1.67 µM
  TGI: 3.17 µM

## Oc1ccc2ccccc2c1N=Nc1ccccn1
NCI-H23 lung
  GI50: 2.82 µM
  TGI: > 100 µM
OVCAR-4 ovarian
  GI50: 0.408 µM
  TGI: 3.87 µM
TK-10 renal
  GI50: 1.53 µM
  TGI: > 86.2 µM
OVCAR-5 ovarian
  GI50: 4 µM
  TGI: > 100 µM
SN12C renal
  GI50: 1.46 µM
  TGI: > 100 µM
HCT-116 colon
  GI50: 0.277 µM
  TGI: 2.77 µM
UO-31 renal
  GI50: 0.306 µM
  TGI: > 25.8 µM
SNB-75 CNS
  GI50: 7.49 µM
  TGI: > 86.7 µM
MALME-3M melanoma
  GI50: 2.07 µM
  TGI: 10.6 µM
MDA-MB-231 breast
  GI50: 0.468 µM
  TGI: > 100 µM
MCF7 breast
  GI50: 0.527 µM
  TGI: > 100 µM
SK-MEL-5 melanoma
  GI50: 2.75 µM
  TGI: 15.6 µM
RPMI-8226 leukemia
  GI50: 1.98 µM
  TGI: > 100 µM
IGROV1 ovarian
  GI50: 0.349 µM
  TGI: 8.14 µM
SF-539 CNS
  GI50: 1.6 µM
  TGI: > 28.4 µM
HCT-15 colon
  GI50: 0.497 µM
  TGI: > 100 µM
CAKI-1 renal
  GI50: 0.138 µM
  TGI: 0.906 µM
CCRF-CEM leukemia
  GI50: 0.312 µM
  TGI: 22.8 µM
KM12 colon
  GI50: 0.919 µM
  TGI: > 100 µM
EKVX NSCLC
  GI50: 0.449 µM
  TGI: 43.4 µM
A498 renal
  GI50: 2.39 µM
  TGI: 20 µM
HS 578T breast
  GI50: 7.52 µM
  TGI: > 52.8 µM
COLO 205 colon
  GI50: 0.431 µM
  TGI: 21.4 µM
HOP-62 NSCLC
  GI50: 1.41 µM
  TGI: > 100 µM
SF-295 CNS
  GI50: 0.8 µM
  TGI: 13.5 µM
K-562 leukemia
  GI50: 0.6 µM
  TGI: > 100 µM
T-47D breast
  GI50: 0.681 µM
  TGI: > 28.4 µM
HT29 colon
  GI50: 0.523 µM
  TGI: > 100 µM
SK-OV-3 ovarian
  GI50: 1.14 µM
  TGI: > 100 µM
MDA-MB-435
  GI50: 2.11 µM
  TGI: > 100 µM
SF-268 CNS
  GI50: 0.554 µM
  TGI: > 100 µM
NCI/ADR-RES ovarian
  GI50: 0.575 µM
  TGI: 4.64 µM
SW-620 colon
  GI50: 0.652 µM
  TGI: > 100 µM
NCI-H522 lung
  GI50: 1.97 µM
  TGI: 43 µM
A549 NSCLC
  GI50: 2.95 µM
  TGI: > 59.3 µM
LOX IMVI melanoma
  GI50: 0.356 µM
  TGI: 12.4 µM
SNB-19 CNS
  GI50: 2.53 µM
  TGI: > 100 µM
HOP-92 NSCLC
  GI50: 3.02 µM
  TGI: > 100 µM
ACHN renal
  GI50: 0.423 µM
  TGI: > 100 µM
PC-3 prostate
  GI50: 1.76 µM
  TGI: > 100 µM
SK-MEL-2 melanoma
  GI50: 3.08 µM
  TGI: > 82.5 µM
DU-145 prostate
  GI50: 1.83 µM
  TGI: > 100 µM
NCI-H226 lung
  GI50: 1.94 µM
  TGI: > 87.9 µM
OVCAR-3 ovarian
  GI50: 0.266 µM
SK-MEL-28 melanoma
  GI50: 2.8 µM
  TGI: > 100 µM
U251 CNS
  GI50: 0.563 µM
  TGI: > 100 µM
SR leukemia
  GI50: 0.356 µM
  TGI: 10.4 µM
HL-60(TB) leukemia
  GI50: 0.469 µM
  TGI: 3.23 µM
NCI-H460 lung
  GI50: 0.532 µM
  TGI: 5.49 µM
M14 melanoma
  GI50: 1.41 µM
  TGI: 7.1 µM
HCC-2998 colon
  GI50: 2.35 µM
  TGI: > 100 µM
UACC-62 melanoma
  GI50: 1.35 µM
  TGI: 8.22 µM
OVCAR-8 ovarian
  GI50: 0.447 µM
  TGI: > 27.4 µM
RXF 393 renal
  GI50: 3.44 µM
  TGI: > 100 µM
MOLT-4 leukemia
  GI50: 0.296 µM
  TGI: 12.5 µM
BT-549 breast
  GI50: 3.44 µM
  TGI: > 100 µM
UACC-257 melanoma
  GI50: 2.01 µM
  TGI: 8.02 µM
